Legend:
[1] = tested on: Caspase-9; assay: Apoptosis-related proteins in HepG2 cells (ELISA), Caspase-9; format: cell-based, human
From the text: Compound 6b was selected to investigate the apoptotic markers against the liver cancer cell line (HepG2). […] Typically, Bax, Bcl-2, and caspases contribute to the regulation of apoptotic signaling. Acting as an apoptotic activator (Bax) or inhibitor (Bcl-2), the Bcl-2 family of proteins plays a significant role in apoptosis. The caspase family comprises cysteine proteases that are classified as either executioner—caspase-3, or as initiators—caspase-9 and caspase-8 [40]. […] Nevertheless, considerable downregulation of the anti-apoptotic gene, Bcl-2 (0.26 folds), was described, leading to an increased expression ratio of Bax/Bcl-2 (1→20.53). The Bax/Bcl-2 gene expression ratio can serve as an early predictor for cancer in patients and is a sensitive monitor of cancer progression. […]
The HepG2 cells were incubated in 96-well plates in triplicates and left for 24 h. […] The treated cells, along with control cells, were then incubated for another 24 h; then, caspases-3 and 9, BAX, and Bcl-2 levels were determined using ELISA assay kits; KHO1091 (Invitrogen^TM, Grand Island, NY, USA), EIA-4860 (DRU International, Inc., Mountainside, NJ, USA), EIA-4487 (DRU International INC., Mountainside, NJ, USA) and 99–0042 (Invitrogen^TM, Grand Island, NY, USA), respectively, according to their manufacturers’ procedures.

[2] = tested on: HepG2 cells; assay: Cell-cycle flow cytometry analysis (PI staining); format: cell-based, human; settings: HepG2, 6b at 6.83 μM, 24 h
Experimental: Programmed cell death is a fundamental cellular program that is inherent in every cell of the human body. One of the most extensively studied forms of programmed cell death is apoptosis, which plays an important role during the various physiological processes and is involved in a variety of pathological conditions. The HepG2 cells were exposed to compound 6b for 24 h and the cell cycle was monitored via flow cytometry; the results are reported in Table 5.
To detect the effect of the synthesized compound, 6b, on cell cycle distribution, flow cytometry analysis was carried out, utilizing propidium iodide (PI) staining. The kit used for the cell cycle flow cytometry analysis was the K101-100 Annexin V-FITC Apoptosis Detection Kit (BioVision, Mountain View, CA, USA). […] Then, the treated cells were fixed in 70% ethanol for 12 h at 4 °C. Following that, the cells were rinsed with cold PBS, incubated with 100 μL RNase A for 0.5 h at 37 °C, and stained with propidium iodide (400 μL) in the dark at RT for an extra 0.5 h. The stained cells were determined, utilizing Epics XLMCL™ flow cytometer equipment (Beckman Coulter, Apeldoorn, Netherlands), then the results were collected and analyzed with the Flowing software (version 2.5.1, Turku Center for Biotechnology, Turku, Finland).

[3] = biological target: T1, Human HER2 (Homo sapiens, UniProt P04626); assay: In vitro HER2 enzyme assay (ELISA kit); format: biochemical
T1 construct: purchased
Experimental: (§1) Human CDK2, EGFR, HER2, and VEGFR-2 ELISA kits (Enzyme-Linked-Immunosorbent Serologic Assay) were used during this evaluation. At first, specified antibody proteins were added separately to a 96-well plate, then 0.1 mL of the standard solution or the evaluated molecule was added; these were then incubated for 2.5 h at RT. After rinsing, 100 μL of the ready-made biotin antibody protein was added, then incubated for one extra hour at room temperature and, finally, washed. Next, 100 μL of streptavidin solution was added, incubated at room temperature for 45 min, and then washed. Next, 100 μL of the TMB substrate reagent was added and incubated for 0.5 h at RT, followed by adding 50 μL of the stop solution. The absorbance of the ELISA plate was promptly measured at 450 nm using the ELISA plate reader.

[4] = tested on: Bax; assay: Apoptosis-related proteins in HepG2 cells (ELISA), Bax; format: cell-based, human
From the text: Compound 6b was selected to investigate the apoptotic markers against the liver cancer cell line (HepG2). […] Typically, Bax, Bcl-2, and caspases contribute to the regulation of apoptotic signaling. Acting as an apoptotic activator (Bax) or inhibitor (Bcl-2), the Bcl-2 family of proteins plays a significant role in apoptosis. The caspase family comprises cysteine proteases that are classified as either executioner—caspase-3, or as initiators—caspase-9 and caspase-8 [40]. […] Nevertheless, considerable downregulation of the anti-apoptotic gene, Bcl-2 (0.26 folds), was described, leading to an increased expression ratio of Bax/Bcl-2 (1→20.53). The Bax/Bcl-2 gene expression ratio can serve as an early predictor for cancer in patients and is a sensitive monitor of cancer progression. Collating all the provided evidence, the upregulation of caspase-3, caspase-9, and Bax is clear, while the downregulation of Bcl-2 genes makes it evident that compound 6b induces apoptosis within the liver cancer cell line (HepG2).
The HepG2 cells were incubated in 96-well plates in triplicates and left for 24 h. After 24 h of incubation, the cells were treated with compound 6b at different concentrations, while control cells were only treated with 0.1% DMSO (v/v). The treated cells, along with control cells, were then incubated for another 24 h; then, caspases-3 and 9, BAX, and Bcl-2 levels were determined using ELISA assay kits; KHO1091 (Invitrogen^TM, Grand Island, NY, USA), EIA-4860 (DRU International, Inc., Mountainside, NJ, USA), EIA-4487 (DRU International INC., Mountainside, NJ, USA) and 99–0042 (Invitrogen^TM, Grand Island, NY, USA), respectively, according to their manufacturers’ procedures.

[5] = tested on: MDA-MB-231 cells (breast cancer); assay: MTT cytotoxicity assay, MDA-MB-231; format: cell-based; settings: Homo sapiens, 24 h treatment, read-out: In Vitro Cytotoxicity IC50 MDA-MB-231
Experimental: (§2) After incubation, the cells were treated with various concentrations of the synthesized compounds and incubated for an additional 24 h. Following the drug treatment, 20 µL of 5 mg/mL MTT solution was added and incubated for 4 h. To dissolve the purple formazan that had formed, 100 µL dimethyl sulfoxide (DMSO) was added to each well. […] The percentage of relative cell viability was counted using the following formula (A570 of handled specimens/A570 of the unhandled specimen), multiplied by 100.

[6] = biological target: T2, Human CDK2 (Homo sapiens, UniProt P24941); assay: In vitro CDK2 enzyme assay (ELISA kit); format: biochemical
T2 construct: purchased
Experimental: as §1

[7] = biological target: T3, Human VEGFR-2 (Homo sapiens, UniProt P35968); assay: In vitro VEGFR-2 enzyme assay (ELISA kit); format: biochemical; settings: read-out: IC50 VEGFR2
T3 construct: purchased
Experimental: as §1, with “Compound 6b was biologically evaluated for its inhibitory effect against CDK2, EGFR, HER2, and VEGFR-2. Human” for “Human”, “reader. The standard curve that was generated had absorbances on the Y-axis and concentrations on the X-axis.” for “reader.”

[8] = tested on: HeLa cells (epithelioid cervix carcinoma); assay: MTT cytotoxicity assay, HeLa; format: cell-based; settings: Homo sapiens, 24 h treatment, read-out: In Vitro Cytotoxicity IC50 Hela
Experimental: as §2

T1 sequence (P04626 23-1255): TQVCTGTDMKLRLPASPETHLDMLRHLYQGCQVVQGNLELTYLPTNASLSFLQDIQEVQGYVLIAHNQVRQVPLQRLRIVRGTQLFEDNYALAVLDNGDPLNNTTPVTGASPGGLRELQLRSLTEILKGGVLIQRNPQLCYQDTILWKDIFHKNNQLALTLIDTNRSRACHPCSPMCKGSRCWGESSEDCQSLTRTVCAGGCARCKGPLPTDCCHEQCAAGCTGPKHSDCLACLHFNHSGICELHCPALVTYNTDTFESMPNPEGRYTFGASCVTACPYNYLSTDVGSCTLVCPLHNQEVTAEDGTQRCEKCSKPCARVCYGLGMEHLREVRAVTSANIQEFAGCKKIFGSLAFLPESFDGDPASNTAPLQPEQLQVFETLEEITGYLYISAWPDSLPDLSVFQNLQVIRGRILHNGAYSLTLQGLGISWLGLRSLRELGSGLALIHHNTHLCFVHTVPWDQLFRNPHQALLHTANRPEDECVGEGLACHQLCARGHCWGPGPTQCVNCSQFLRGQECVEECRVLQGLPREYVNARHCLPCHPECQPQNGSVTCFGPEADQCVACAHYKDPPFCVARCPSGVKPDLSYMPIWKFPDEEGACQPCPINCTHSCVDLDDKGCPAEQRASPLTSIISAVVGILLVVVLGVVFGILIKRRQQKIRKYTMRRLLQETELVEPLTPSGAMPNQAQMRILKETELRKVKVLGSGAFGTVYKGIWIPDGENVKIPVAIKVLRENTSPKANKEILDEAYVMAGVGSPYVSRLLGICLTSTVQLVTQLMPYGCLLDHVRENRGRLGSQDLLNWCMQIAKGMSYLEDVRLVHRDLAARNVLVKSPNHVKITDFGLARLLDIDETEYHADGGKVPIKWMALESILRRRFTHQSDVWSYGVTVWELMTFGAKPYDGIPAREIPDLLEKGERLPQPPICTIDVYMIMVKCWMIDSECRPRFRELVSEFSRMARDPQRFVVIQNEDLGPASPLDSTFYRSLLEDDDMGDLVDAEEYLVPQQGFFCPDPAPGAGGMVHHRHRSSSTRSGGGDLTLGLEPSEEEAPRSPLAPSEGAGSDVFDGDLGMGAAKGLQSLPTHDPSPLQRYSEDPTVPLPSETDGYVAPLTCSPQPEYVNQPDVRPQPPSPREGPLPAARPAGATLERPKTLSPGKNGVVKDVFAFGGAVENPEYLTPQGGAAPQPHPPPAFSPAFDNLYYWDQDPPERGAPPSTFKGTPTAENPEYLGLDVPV
T3 sequence (P35968 20-1356): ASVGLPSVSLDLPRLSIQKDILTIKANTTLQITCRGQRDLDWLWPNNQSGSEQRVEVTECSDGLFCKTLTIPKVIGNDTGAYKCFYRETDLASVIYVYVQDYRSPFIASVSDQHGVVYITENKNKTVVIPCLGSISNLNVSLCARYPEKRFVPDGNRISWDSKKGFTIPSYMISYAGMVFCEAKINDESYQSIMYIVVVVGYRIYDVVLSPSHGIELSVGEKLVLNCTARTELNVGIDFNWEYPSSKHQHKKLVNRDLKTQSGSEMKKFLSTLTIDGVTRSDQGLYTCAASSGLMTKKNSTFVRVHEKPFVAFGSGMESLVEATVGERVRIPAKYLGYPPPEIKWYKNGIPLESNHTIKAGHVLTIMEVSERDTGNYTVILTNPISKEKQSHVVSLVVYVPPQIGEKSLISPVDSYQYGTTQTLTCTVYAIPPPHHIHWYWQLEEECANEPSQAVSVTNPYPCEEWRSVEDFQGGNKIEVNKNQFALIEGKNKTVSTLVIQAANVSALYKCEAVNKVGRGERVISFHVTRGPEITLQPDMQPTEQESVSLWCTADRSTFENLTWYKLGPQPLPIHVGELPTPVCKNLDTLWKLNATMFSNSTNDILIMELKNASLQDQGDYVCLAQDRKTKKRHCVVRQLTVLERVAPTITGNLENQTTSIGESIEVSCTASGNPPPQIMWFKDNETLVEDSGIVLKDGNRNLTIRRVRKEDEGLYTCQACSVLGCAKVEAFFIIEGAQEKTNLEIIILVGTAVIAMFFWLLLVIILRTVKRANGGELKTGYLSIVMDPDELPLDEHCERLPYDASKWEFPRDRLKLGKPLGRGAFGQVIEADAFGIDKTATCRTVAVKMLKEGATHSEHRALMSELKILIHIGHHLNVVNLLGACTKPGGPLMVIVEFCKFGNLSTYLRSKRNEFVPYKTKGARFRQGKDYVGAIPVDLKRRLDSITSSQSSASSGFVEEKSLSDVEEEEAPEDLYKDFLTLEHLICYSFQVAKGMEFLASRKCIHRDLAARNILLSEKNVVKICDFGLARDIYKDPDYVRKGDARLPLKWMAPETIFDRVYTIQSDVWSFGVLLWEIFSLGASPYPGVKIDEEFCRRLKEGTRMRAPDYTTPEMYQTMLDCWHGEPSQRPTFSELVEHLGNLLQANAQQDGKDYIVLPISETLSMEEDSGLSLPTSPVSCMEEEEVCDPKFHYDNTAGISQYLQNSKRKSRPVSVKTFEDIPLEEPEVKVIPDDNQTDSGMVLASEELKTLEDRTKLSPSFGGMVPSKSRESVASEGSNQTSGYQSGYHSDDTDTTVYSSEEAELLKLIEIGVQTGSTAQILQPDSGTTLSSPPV

## O=C(CSc1nc2ccccc2o1)NN=Cc1ccc[nH]1 (mixture of isomers) [Compound 6b, (E/Z)-N′-((1H-pyrrol-2-yl)methylene)-2-(benzo[d]oxazol-2-ylthio)acetohydrazide]
[1]; 24 h treatment, ELISA
  Caspase-9 Expression: 15.82 ± 0.51 pg/mL
[1]; versus control HepG2 = 1
  Caspase-9 Fold: 3.5 fold
[2]
  %G0–G1: 40.37%
  %G2/M: 31.26%
  %Pre–G1: 16.84%
  %S: 28.37%
[3]
  IC50: 224 ± 13 nM
[4]; 24 h treatment, ELISA
  Bax Expression: 448.4 ± 15.4 pg/mL
[4]; control = 1
  expression ratio of Bax/Bcl-2: 20.53
[4]; versus control HepG2 = 1
  Bax Fold: 5.34 fold
[5]
  IC50: 2140 ± 100 nM
[6]
  IC50: 886 ± 46 nM
[7]
  IC50: 565 ± 25 nM
[8]
  IC50: 5180 ± 500 nM

— article PMC9863562, “Design, Synthesis, and Biological Evaluation of 2-Mercaptobenzoxazole Derivatives as Potential Multi-Kinase Inhibitors” (Pharmaceuticals, 2023)
